According to PMC4503980 (Scientific Reports, 2015):
Peptide text beside a SMILES is read from it. * marks the point of attachment. 5TAMRA = CN(C)c1ccc2c(c1)Oc1cc(N(C)C)ccc1C21OC(=O)c2cc(C(=O)*)ccc21

Columns and labels:
Type in all cases: binding
PSD-95-PDZ1-2 = target: T1, PSD-95-PDZ1-2 (Homo sapiens, UniProt P78352); test: FP saturation and inhibition, TAMRA-Cnskr2 / PSD-95-PDZ1-2; details: saturation, TAMRA-Cnskr2 5 nM; read-out: Kd probe / PSD-95-PDZ1-2
T1 construct: PDZ1-2 (61-249); made in house; host or cells: E. coli BL21-DE3 pLysS
T1 sequence (P78352 61-249): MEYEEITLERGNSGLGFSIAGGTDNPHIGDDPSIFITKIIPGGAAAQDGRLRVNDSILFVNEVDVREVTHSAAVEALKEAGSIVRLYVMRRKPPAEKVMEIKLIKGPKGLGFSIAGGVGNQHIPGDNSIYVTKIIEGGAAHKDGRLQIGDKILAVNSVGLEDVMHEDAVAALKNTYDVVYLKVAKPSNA
Text: (§1) First we tested a series of 23 fluorescent-labelled C-terminal peptide ligands (Supplementary Table S1) derived from PDZ-interacting proteins in order to find a probe with good activity towards the PSD-95 PDZ domains and no or little activity against nNOS-PDZ (Supplementary Fig. S1). The Cnskr2 probe fulfilled these selectivity criteria and was used to generate saturation curves with PDZ2 and PDZ1-2 of PSD-95 (Fig. 4a). […] Next, fixed concentrations of TAMRA-Cnskr2, PSD-95-PDZ2/1-2, and nNOS-PDZ were applied, corresponding to the conditions at IC50 of the nNOS-PDZ inhibition curve (Fig. 4b) where sensitivity of the assay is greatest. […] Here, we used the Sapk3-peptide as it has the desired high affinity to α1-Syntrophin-PDZ and low affinity to nNOS-PDZ (Supplementary Fig. S1).
(§2) The minor increases in mP at high concentrations, 260-2900 μM, were due to fluorescence artefacts.
(§3) Incubation time was 10–15 minutes (room temperature), and the assay was performed in a 1 × TBS buffer (150 mM NaCl, 10 mM Tris, pH 7.4) using black flat-bottom 384-well plates (Corning Life Sciences, NY) and a Safire2 plate-reader (Tecan, Männedorf, Switzerland). […] TAMRA- and Cy5-probes were measured at excitation/emission values of 530/585 nm (bandwidth = 20 nm) and 635/670 nm (bandwidth = 15 nm), respectively. […]

nNOS-PDZ = target: T2, nNOS-PDZ (Homo sapiens, UniProt P29475); test: FP saturation, TAMRA-Cnskr2 / nNOS-PDZ; details: TAMRA-Cnskr2 5 nM, read-out: Kd probe / nNOS-PDZ
T2 construct: nNOS-PDZ (12–130, human); made in house; host or cells: E. coli
T2 sequence (P29475 12-130): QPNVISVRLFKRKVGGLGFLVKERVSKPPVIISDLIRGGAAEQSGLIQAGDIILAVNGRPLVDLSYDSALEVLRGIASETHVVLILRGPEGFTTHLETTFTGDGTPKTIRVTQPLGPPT
Text: as §1, §2, §3

PSD-95-PDZ2 = PSD-95-PDZ2 (Homo sapiens, UniProt P78352); test: FP saturation and inhibition, TAMRA-Cnskr2 / PSD-95-PDZ2; set-up: PDZ2 (155-249); made in house; host or cells: E. coli BL21-DE3 pLysS; details: saturation, TAMRA-Cnskr2 5 nM; read-out: Kd probe / PSD-95-PDZ2
Sequence of PSD-95-PDZ2 (P78352 155-249): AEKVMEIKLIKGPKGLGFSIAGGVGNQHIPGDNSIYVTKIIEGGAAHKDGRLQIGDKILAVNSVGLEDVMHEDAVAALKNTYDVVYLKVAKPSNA
Text: as §1, §2, §3

Kd (PSD-95-PDZ1-2): 1100 ± 100 nM
Kd (nNOS-PDZ): > 190000 nM
Kd (PSD-95-PDZ2): 380 ± 30 nM
Compound: CC[C@H](C)[C@H](NC(=O)[C@H](Cc1ccc(O)cc1)NC(=O)[C@H](CO)NC(=O)[C@H](Cc1c[nH]cn1)NC(=O)[C@@H](NC(=O)[C@H](Cc1c[nH]cn1)NC(=O)CNC(=O)[C@H](CC(N)=O)NC(=O)[C@H](CC(N)=O)NC(=O)c1ccc2c(c1)C(=O)OC21c2ccc(N(C)C)cc2Oc2cc(N(C)C)ccc21)[C@@H](C)O)C(=O)N[C@@H](CCC(=O)O)C(=O)N[C@H](C(=O)N[C@@H](Cc1c[nH]cn1)C(=O)N[C@H](C(=O)O)C(C)C)[C@@H](C)O [TAMRA-Cnskr2] (5TAMRA-NNGHTHSYIETHV-OH)
